In assay [1] the test system is LPS-induced TNF-α release in primary cultured microglial cells. Briefly: LPS-induced TNF-α release from primary cultured microglial cells (ELISA). Type of assay: cell-based, mouse. On the procedure:
Murine primary culture microglial cells were isolated from mouse cerebral cortices (C57BL/6 mice) and cultured as previously described (Tan et al. 2000b). To investigate whether α7 nAChR subunits are expressed in microglial cells, we first isolated total RNA from N9 microglial cell line and primary cultured microglial cells for RT-PCR analysis.
To determine whether ACh or nicotine could inhibit LPS-induced TNF-α production in these microglial cells, the inventors pre-incubated microglial cells with ACh or nicotine for 30 minutes and challenged these cells with LPS for 4 hours. […] Primary cultured microglial cells pretreated with ACh (FIG. 3B) or nicotine […] at a range of dose as indicated for 30 minutes and challenged with LPS (100 ng/mL) for 4 hours. Microglial TNF-α release was measured by ELISA.
On the technique in general: ELISA stands for enzyme-linked immunosorbent assay.

The target in assay [2] is α7 nAChR subunit (Mus musculus, UniProt P49582).
α7 nAChR subunit, sequence (P49582 23-502): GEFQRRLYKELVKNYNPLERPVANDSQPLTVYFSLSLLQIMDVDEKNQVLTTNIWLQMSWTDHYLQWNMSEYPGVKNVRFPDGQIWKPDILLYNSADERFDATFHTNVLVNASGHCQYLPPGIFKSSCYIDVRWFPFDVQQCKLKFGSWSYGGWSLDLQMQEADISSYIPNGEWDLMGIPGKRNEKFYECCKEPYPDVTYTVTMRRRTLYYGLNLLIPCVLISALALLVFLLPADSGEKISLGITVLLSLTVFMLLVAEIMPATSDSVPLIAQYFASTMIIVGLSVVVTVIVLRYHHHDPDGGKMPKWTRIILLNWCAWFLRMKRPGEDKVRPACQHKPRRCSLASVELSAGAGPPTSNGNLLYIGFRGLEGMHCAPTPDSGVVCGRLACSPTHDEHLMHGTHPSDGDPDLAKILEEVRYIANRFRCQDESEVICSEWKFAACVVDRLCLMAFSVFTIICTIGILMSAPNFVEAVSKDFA

Read-outs that look alike come from different tables or passages of the source.

`CNC1(C)C2CCC(C2)C1(C)C` (stereo not drawn) [mecamylamine]: in assay [1], the “effect of nACh antagonist on ACh or nicotine-mediated inhibition of microglial TNF-α production” value was “significantly recovers”. Further, in assay [1] (antagonist without agonist, […], LPS 100 ng/mL 4 hours, p>0.05), the “TNF-α release, antagonist plus LPS versus LPS alone” value is on record as “no significances”.

For `CN1CCCC1c1cccnc1` (stereo not drawn) [nicotine], in assay [1], the “dose dependence of inhibition of microglial LPS-induced TNF-α production” value was “dose-dependently inhibits”. In addition, in assay [1] (pre-stimulated 30 minutes at 5 μM, then LPS 100 ng/mL for 4 hours, p<0.01 vs LPS (FIG. 3A)), the “LPS-induced TNF-α release” value is recorded as “marked reduction”. Further, the “fluorescent intensity of FITC-labeled α-bungarotoxin binding” value in assay [2] is listed as “marked reduction”.

Consider α-bungarotoxin, for which, in assay [1], the “TNF-α release, antagonist plus LPS versus LPS alone” value is given as “no significances”.

Source of the values: US20060142180A1, “Cholinergic modulation of microglial activation via alpha-7 nicotinic receptors” (priority 2003, published 2006).
